Measurements as given in publication PMC4815068, “A phase I study of high-dose rosuvastatin with standard dose erlotinib in patients with advanced solid malignancies” (Journal of Translational Medicine, 2016).
Entries after “also recorded” stand apart in the source; their conditions may differ. Read-outs that look alike come from different tables or passages of the source. Marks after values point to notes of the source that are not given here.

Columns and labels:
[1] = Pharmacokinetic analysis of serum levels by LC/MS/MS
Method: Pharmacokinetic analysis of erlotinib serum levels was undertaken at day 6 (erlotinib alone) and at day 14 (erlotinib and 1 mg/kg/day rosuvastatin treatments) and rosuvastatin at the day 14 timepoint of cycle 1 in 6 study patients (Schedule A). On day 6 and 14 serum erlotinib levels and day 14 serum rosuvastatin levels were determined at 2 h intervals for a full 24 h after drug treatments. The analysis of rosuvastatin and erlotinib was performed by a validated liquid chromatography mass spectrometry/mass spectrometry (LC/MS/MS) method. Protein precipitation (plasma: 50/50 acetonitrile/[…] 1:2) was used for sample preparation before injecting to HPLC for separation. Rosuvastatin, erlotinib and internal standard (IS), 6,7-Dimethyl-2,3-di(2-pyridyl)-quinoxaline (DMDPQ) was eluted by HPLC (Accela, Thermo) using a gradient mobile phase [0.2 % Formic acid (V:V), and 100 % methanol]. […] Detection was done by tandem Mass spectrometer (TSQ Quantum Access MAX, Thermo) with electrospray ionization in positive mode. The multiple reaction monitoring (MRM) was be used to detect specific precursor ion to product ion transitions for rosuvastatin (m/s 482.3/258.1), erlotinib (m/s 394.3/336.2), and IS (m/s 313.2/91.2), respectively. Xcalibur and TSQ Tune master software (Thermo) was used as the system controller and integrator.

[2] = On-study laboratory evaluations (CPK, cholesterol, LDL, HDL); type: in vivo, human
Method: Patients had weekly laboratory evaluations for hematogical, hepatic and renal functions and biochemical changes including creatine and creatine phosphokinase (CPK) and fasting total cholesterol, HDL and LDL during cycle 1 and at the start of each subsequent cycle. Physical examinations occurred at the start of each cycle and radiological tumor evaluations were completed after every 2 cycles. Tumor response was assessed using response evaluation criteria in solid tumors (RECIST) criteria.

[3] = system: patients with advanced solid tumours
Method: This was a single-center, phase I open-label study to determine the safety and RPTD of rosuvastatin in combination with the standard clinical dose of erlotinib (150 mg/day) in patients with advanced solid tumours. […] Eight cohorts from 1 to 8 mg/kg/day rosuvastatin given concurrently with standard dose erlotinb in 28-day cycles were planned. […] Patients received therapy until evidence of disease progression, the development of serious or unmanageable adverse events (SAE), or until study withdrawal. Clinically or radiological documented disease and an ECOG performance status of 0, 1 or 2 was also required. All study patients had adequate hematogical, hepatic and renal functions at baseline. Adequate hematological function was defined as hemoglobin ≥90 g/L, absolute granulocyte count ≥1.5 × 10^9/L and platelet counts ≥100 × 10^9/L. Biochemical parameters for hepatic function included; total bilirubin <1.5× the upper limit of normal (ULN) and ALT/AST <1.5× ULN. […] Any anticholesterol agents were discontinued at least 7 days prior to starting the trial.
Erlotinib was provided by Roche Canada and was administered orally in tablet form at a standard daily dose of 150 mg. […] The starting dose of rosuvastatin was 1 mg/kg/day with the dose of rosuvastatin increasing in a step-wise manner in escalating doses of 1 mg/kg/day. […] During cycle-1 of the dose escalation, treatment with rosuvastin was administered as follows: 1 week off, then daily for 2 weeks, then 1 week off. […] Doses were rounded to the nearest 5 mg since rosuvastatin is available in 5, 10, 20 and 40 mg tablets (purchased from AstraZeneca, Canada). Oral administration of rosuvastatin was once daily if daily dose was <80 mg, twice if 81–160 mg, three times a day if 161–240 mg and four times a day if >240 mg daily dose. […] No prophylactic medications were supplied. Standard supportive care medications were allowed. Oral supplementation of ubiquinone at 60 mg po QID was initiated if patient developed grade 3 or 4 muscle toxicity and continued until recovery to baseline.
A 3 + 3 dose escalation phase I study design was used, with 3 patients planned at each cohort. […] All 3 patients at a given dose level needed to complete the first cycle of treatment without suffering DLT before new patients were enrolled at the next dose level. The lead patient at each new dose level completed the first cycle of treatment before other patients were enrolled at the same dose level. If 1/3 initial patients at each dose experienced a DLT, then the treatment level was expanded to at least 6 patients. […] There was no dose escalations allowed within individual patients. If >2 patients at any dose level experienced DLT, then that level was considered to have exceeded the maximal tolerated dose (MTD), and the level immediately preceding that level was designated as MTD and RPTD.

CYP3A4 = conditions: cited from earlier work
advanced solid tumours = experiment: Tumor response (RECIST) and days on study; type: in vivo, human
Method: Physical examinations occurred at the start of each cycle and radiological tumor evaluations were completed after every 2 cycles. Tumor response was assessed using response evaluation criteria in solid tumors (RECIST) criteria. […] In these cases, the patient went off protocol treatment. […] Similar strategies were employed for other toxicities as well. […] This study was conducted according to Good Clinical Practice.

[4] = system: patients with solid tumors; conditions: weekly regimen, lovastatin monotherapy; cited from earlier work
recurrent SCC patients = conditions: cited from earlier work
NSCLC patients = system: NSCLC patients; parameters: method as in PMID 21411446; conditions: hypercholesterolemia dose of simvastatin daily with standard dose gefitinib, SCC patients; cited from earlier work
[5] = concurrent rosuvastatin + erlotinib

SMILES: C#Cc1cccc(Nc2ncnc3cc(OCCOC)c(OCCOC)cc23)c1 [erlotinib]
- Tmax ([1]; erlotinib (+rosuvastatin 1 mg/kg/day) (day 14), individual Schedule A patients 14-18): 6 h
- Tmax ([1]; erlotinib alone (day 6), 150 mg/day, individual Schedule A patients 13-18): 6 h
- Half-life of erlotinib on addition of rosuvastatin ([1]; human, in vivo): unaffected
- half-life ([1]; human, in vivo, 150 mg/day): 1090 min
- half-life ([1]; human, in vivo, 150 mg/day, t 1/2, erlotinib alone (day 6), 150 mg/day, individual Schedule A patients 13-18): 1540 min
- half-life ([1]; human, in vivo, t1/2): 1460 min
- Erlotinib AUC, day 6 (alone) versus day 14 (+rosuvastatin) ([1]; in vivo): did not differ significantly
- Erlotinib Cmax and Tmax, day 6 versus day 14 (+rosuvastatin) ([1]; in vivo): similar
- Plasma erlotinib levels on addition of rosuvastatin ([1]; in vivo): unaffected

SMILES: CC(C)c1nc(N(C)S(C)(=O)=O)nc(-c2ccc(F)cc2)c1/C=C/[C@@H](O)C[C@@H](O)CC(=O)O [rosuvastatin]
- Patients with elevated CPK levels during rosuvastatin treatments ([2]; 1 mg/kg/day dose + erlotinib): 1 out of 16
- Patients with elevated CPK levels during rosuvastatin treatments ([2]; 2 mg/kg/day dose (Cohort 2) + erlotinib): 4 out of the 8
- Serum CPK level in the patient with rhabdomyolysis ([2]; day 28 (erlotinib and rosuvastatin 2 mg/kg/day), increased from 60 U/L): over 2000 U/L
- Change in serum cholesterol, LDL or HDL levels ([2]; rosuvastatin + erlotinib, even in patients on study greater than 170 days): did not result in significant changes
- Anorexia, ≥Grade 2 ([3]; human, in vivo): 62.5%
- Anxiety, ≥Grade 2 ([3]; human, in vivo): 4.2%
- Diarrhea, ≥Grade 2 ([3]; human, in vivo): 20.8%
- Fatigue, ≥Grade 2 ([3]; human, in vivo): 75.0%
- Muscle weakness, ≥Grade 2 ([3]; human, in vivo): 41.7%
- Myalgia, ≥Grade 2 ([3]; human, in vivo): 29.2%
- Nausia, ≥Grade 2 ([3]; human, in vivo): 16.7%
- Rash, ≥Grade 2 ([3]; human, in vivo): 29.2%
- Rhabdomyolysis, ≥Grade 2 ([3]; human, in vivo): 4.2^a %
- Vomiting, ≥Grade 2 ([3]; human, in vivo): 16.7%
- Weight loss, ≥Grade 2 ([3]; human, in vivo): 16.7%
- Patients who developed rhabdomyolysis (study related death) ([3]; rosuvastatin 2 mg/kg/day + erlotinib, 8 evaluable patients): single patient out of 8
- CYP3A4 substrate (CYP3A4; ref 32): non-CYP3A4 substrate
- CYP3A4 substrate (CYP3A4; ref 33): not a CYP3A4 substrate
- Patients with durable stable disease, NSCLC (advanced solid tumours; [5]): 2/4
- Patients with durable stable disease, genitourinary (GU) cancer (vaginal squamous epithelial carcinoma) (advanced solid tumours; [5]): 1/4
- Patients with durable stable disease, pancreatic cancer (neuroendocrine tumour) (advanced solid tumours; [5]): 1/2
- Evaluable patients on study for greater than 170 days (advanced solid tumours; concurrent rosuvastatin + erlotinib (Cohorts 1, 2 and Schedule A)): 4/16
- Patients on study for greater than 275 days (advanced solid tumours; concurrent rosuvastatin + erlotinib, 16 evaluable): 3 patients
- Durable stable disease for more than 170 days (rate) (advanced solid tumours; concurrent rosuvastatin + erlotinib, evaluable for response n = 16): 25%
- Patients with disease stabilization greater than 6 months (advanced solid tumours; concurrent treatment regimens, rosuvastatin + erlotinib): 4/16
- Objective responses (RECIST) (advanced solid tumours; rosuvastatin + erlotinib, 22 evaluable patients): No objective responses; also recorded: absence of objective responses

SMILES: CC[C@H](C)C(=O)O[C@H]1C[C@@H](C)C=C2C=C[C@H](C)[C@H](CC[C@@H]3C[C@@H](O)CC(=O)O3)[C@H]21 [lovastatin]
- Clinical efficacy as an anticancer therapy [4]: failed to demonstrate clinical efficacy
- DLT of lovastatin (recurrent SCC patients; prolonged oral administration, recurrent SCC): reversible muscle toxicity
- Patients with disease stabilization lasting greater than 3 months (recurrent SCC patients; single agent lovastatin, SCC patients): 23%
- Dose-limiting muscle toxicities greater than grade 2 in severity (recurrent SCC patients; single agent lovastatin, of the 5 patients with muscle DLT): 2
- Patients with reversible dose-limiting muscle toxicities (recurrent SCC patients; single agent lovastatin, of the 24 patients enrolled): 5 patients

SMILES: CCC(C)(C)C(=O)O[C@H]1C[C@@H](C)C=C2C=C[C@H](C)[C@H](CC[C@@H]3C[C@@H](O)CC(=O)O3)[C@H]21 [simvastatin]
- Response rates and PFS compared to gefitinib alone (NSCLC patients): higher response rates and longer PFS
